Values quoted from earlier work in patent publication US12691091B2, “Compositions comprising cetylated fatty acids for use in the treatment of gastric mucosa, diabetes and high blood glucose levels” (PHARMANUTRA S.P.A., priority 2019, dated 2026).

Conditions: European Union food additive E319

## CC(C)(C)c1cc(O)ccc1O [TBHQ, Tert-butyl-hydroquinone]
  acceptable daily intake (ADI): 0.7 mg/kg of body weight
